According to PubChem BioAssay AID1963972 (Molecular Pharmacology Branch, DTP, NCI, 2024):
Values belong to the molecule of their own block, whether it stands above or below them.

Test system: 945468-187-T-J2-PDC spheroids viability
Experiment: Anticancer human tumor 945468-187-T-J2-PDC patient-derived rectal carcinoma cell line growth inhibition [PI3K]
Conditions: spheroids with HUVEC and MSC; for IC50: curve of first compound; for viability, T/C: stronger effect = lower value
Description: Combinatorial screen of targeted agents with the PI3K inhibitors inavolisib, alpelisib, duvelisib, and copanlisib in multi-cell type tumor spheroids
A high-throughput screen of multi-cell type tumor spheroids was designed to identify active combinations of targeted small molecules and PI3K pathway inhibitors. Complex spheroids include a stromal component modeled by human endothelial cells (HUVEC) and fibroblasts modeled by human mesenchymal stem cells (MSCs). The concentration ranges selected for each drug and investigational agent were based upon clinically achievable concentrations if the clinical Cmax of the agent was known.
Compounds. The drugs and investigational agents: inavolisib (NSC800729), alpelisib (NSC765974), duvelisib (NSC772469), copanlisib (NSC816437), ipatasertib (NSC767898), afuresertib (NSC778305), talazoparib (NSC767125), sapanisertib (NSC764658), selumetinib (NSC741078), tovorafenib (DAY101, NSC766906), vemurafenib (NSC761431), ravoxertinib (NSC781343), sotorasib (NSC818433), MRTX1133 (NSC 836407), abemaciclib (NSC 768073), palbociclib (NSC758247), venetoclax (NSC 766270), SY5609 (NSC837396), enzalutamide (NSC755605), and darolutamide (NSC825331), were obtained from the National Cancer Institute (NCI) Developmental Therapeutics Program Chemical Repository. The FDA-approved anticancer drug set is available from the NCI Developmental Therapeutics Program. […] The stock solutions were prepared in dimethyl sulfoxide (DMSO, Sigma-Aldrich, St. Louis, MO, cat. D2650) at 800-fold the tested concentration and stored at -70 degrees C prior to their use. All drugs and investigational agents were tested over a range starting from a high concentration at or near the clinical Cmax and decreasing in half-log increments. If the clinical Cmax for an agent had not been determined, the highest concentration tested was 10 microM.
Cell Culture. All cells were maintained in an incubator at 37 degrees C and 5% CO2 with 95% humidity. The PDC lines were cultured according to standard operating procedures established by the NCI PDMR (https://pdmr.cancer.gov/sops/default.htm). All PDCs were thawed and cultured in Matrigel-coated flasks prepared with a working solution of 1X Ham's F-12 nutrient mix, without supplementation (Invitrogen, Waltham, MA, cat. 11765054), 100 U/mL penicillin-streptomycin (Invitrogen, cat. 15140122), and 2.5% Matrigel (Corning Inc., Corning, NY, cat. 354248) for the first three passages. The 354836-022-R-J1-PDC, 475296-252-R-J1-PDC, and 997726-040-R-J2-PDC lines were cultured in 6A media, which includes advanced DMEM/F-12 (Thermo Fisher Scientific, cat. 12634028), 10 mM HEPES (Thermo Fisher Scientific, cat. 15630080), 1X GlutaMAX supplement (Thermo Fisher Scientific, cat. 35050061), 0.1 mg/mL primocin (InvivoGen, San Diego, CA, cat. ant-pm-2), 10% defined fetal bovine serum, heat inactivated (HyClone Laboratories Inc., Logan, UT, cat. SH30070.03HI), 50% L-WRN conditioned media (ATCC, cat. CRL-3276), 1.25 mM N-Acetyl-L-cysteine (Sigma-Aldrich, cat. A9165), 10 mM nicotinamide (Sigma-Aldrich, cat. N0636), 1X B-27 supplement (Thermo Fisher Scientific, cat. 17504044), 1X N-2 supplement (Thermo Fisher Scientific, cat. 17502048), and 10 microM Y-27632 dihydrochloride (Tocris Bioscience, Bristol, United Kingdom, cat. 1254). The 624824-186-R-J2-PDC line was cultured in 6C/Colon 1B media, which includes all 6A media components plus 50 ng/mL human EGF recombinant protein (Thermo Fisher Scientific, cat. PHG0311). […]

[1] = second compound 0.00316 µM, first compound 0.0316 µM
[2] = second compound 0.00316 µM, first compound 0.1 µM
[3] = second compound 0.01 µM, first compound 0.0316 µM
[4] = second compound 0.01 µM, first compound 0.1 µM
[5] = second compound 0.0316 µM, first compound 0.0316 µM
[6] = second compound 0.0316 µM, first compound 0.1 µM
[7] = second compound 0.1 µM, first compound 0.0316 µM
[8] = second compound 0.1 µM, first compound 0.1 µM
[9] = second compound 0.316 µM, first compound 0.0316 µM
[10] = second compound 0.316 µM, first compound 0.1 µM
[11] = second compound 1 µM, first compound 0.0316 µM
[12] = second compound 1 µM, first compound 0.1 µM
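Note: spheroids exposed to compounds for seven days before reading.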

IC50 (second compound 0.00316 µM): > 100 nM
IC50 (second compound 0.01 µM): > 100 nM
IC50 (second compound 0.0316 µM): > 100 nM
IC50 (second compound 0.1 µM): > 100 nM
IC50 (second compound 0.316 µM): < 0.316 nM
IC50 (second compound 1 µM): < 0.316 nM
SMILES: Cn1ncnc1[C@H]1c2n[nH]c(=O)c3cc(F)cc(c23)N[C@@H]1c1ccc(F)cc1 + COc1c(OCCCN2CCOCC2)ccc2c3n(c(=NC(=O)c4cnc(N)nc4)nc12)CCN3
viability, T/C (second compound 0.00316 µM, first compound 0.000316 µM): 107%
viability, T/C (second compound 0.00316 µM, first compound 0.001 µM): 114%
viability, T/C (second compound 0.00316 µM, first compound 0.00316 µM): 90.7%
viability, T/C (second compound 0.00316 µM, first compound 0.01 µM): 104%
viability, T/C [1]: 97.3%
viability, T/C [2]: 108%
viability, T/C (second compound 0.01 µM, first compound 0.000316 µM): 105%
viability, T/C (second compound 0.01 µM, first compound 0.001 µM): 128%
viability, T/C (second compound 0.01 µM, first compound 0.00316 µM): 101%
viability, T/C (second compound 0.01 µM, first compound 0.01 µM): 84%
viability, T/C [3]: 98.4%
viability, T/C [4]: 96.8%
viability, T/C (second compound 0.0316 µM, first compound 0.000316 µM): 98.7%
viability, T/C (second compound 0.0316 µM, first compound 0.001 µM): 107%
viability, T/C (second compound 0.0316 µM, first compound 0.00316 µM): 85.3%
viability, T/C (second compound 0.0316 µM, first compound 0.01 µM): 104%
viability, T/C [5]: 95.2%
viability, T/C [6]: 88.5%
viability, T/C (second compound 0.1 µM, first compound 0.000316 µM): 93.2%
viability, T/C (second compound 0.1 µM, first compound 0.001 µM): 75.7%
viability, T/C (second compound 0.1 µM, first compound 0.00316 µM): 83.6%
viability, T/C (second compound 0.1 µM, first compound 0.01 µM): 81.3%
viability, T/C [7]: 84.3%
viability, T/C [8]: 88.1%
viability, T/C (second compound 0.316 µM, first compound 0.000316 µM): 34%
viability, T/C (second compound 0.316 µM, first compound 0.001 µM): 35.2%
viability, T/C (second compound 0.316 µM, first compound 0.00316 µM): 43.5%
viability, T/C (second compound 0.316 µM, first compound 0.01 µM): 39.3%
viability, T/C [9]: 39.3%
viability, T/C [10]: 44%
viability, T/C (second compound 1 µM, first compound 0.000316 µM): 21%
viability, T/C (second compound 1 µM, first compound 0.001 µM): 19.7%
viability, T/C (second compound 1 µM, first compound 0.00316 µM): 23.7%
viability, T/C (second compound 1 µM, first compound 0.01 µM): 22.8%
viability, T/C [11]: 20.2%
viability, T/C [12]: 20.8%

IC50 (second compound 0.00316 µM): 5780 nM
IC50 (second compound 0.01 µM): 6430 nM
IC50 (second compound 0.0316 µM): 5580 nM
IC50 (second compound 0.1 µM): 6050 nM
IC50 (second compound 0.316 µM): < 31.6 nM
IC50 (second compound 1 µM): < 31.6 nM
SMILES: CCCS(=O)(=O)Nc1ccc(F)c(C(=O)c2c[nH]c3ncc(-c4ccc(Cl)cc4)cc23)c1F + COc1c(OCCCN2CCOCC2)ccc2c3n(c(=NC(=O)c4cnc(N)nc4)nc12)CCN3
viability, T/C [1]: 95.3%
viability, T/C [2]: 106%
viability, T/C (second compound 0.00316 µM, first compound 0.316 µM): 111%
viability, T/C (second compound 0.00316 µM, first compound 1 µM): 116%
viability, T/C (second compound 0.00316 µM, first compound 3.16 µM): 89.2%
viability, T/C (second compound 0.00316 µM, first compound 10 µM): 14.6%
viability, T/C [3]: 109%
viability, T/C [4]: 82%
viability, T/C (second compound 0.01 µM, first compound 0.316 µM): 79.8%
viability, T/C (second compound 0.01 µM, first compound 1 µM): 92.5%
viability, T/C (second compound 0.01 µM, first compound 3.16 µM): 105%
viability, T/C (second compound 0.01 µM, first compound 10 µM): 22.9%
viability, T/C [5]: 100%
viability, T/C [6]: 91.4%
viability, T/C (second compound 0.0316 µM, first compound 0.316 µM): 90.2%
viability, T/C (second compound 0.0316 µM, first compound 1 µM): 103%
viability, T/C (second compound 0.0316 µM, first compound 3.16 µM): 75.2%
viability, T/C (second compound 0.0316 µM, first compound 10 µM): 24.2%
viability, T/C [7]: 73.1%
viability, T/C [8]: 90.5%
viability, T/C (second compound 0.1 µM, first compound 0.316 µM): 77.7%
viability, T/C (second compound 0.1 µM, first compound 1 µM): 77.6%
viability, T/C (second compound 0.1 µM, first compound 3.16 µM): 77.2%
viability, T/C (second compound 0.1 µM, first compound 10 µM): 29%
viability, T/C [9]: 38.7%
viability, T/C [10]: 37%
viability, T/C (second compound 0.316 µM, first compound 0.316 µM): 36.9%
viability, T/C (second compound 0.316 µM, first compound 1 µM): 34%
viability, T/C (second compound 0.316 µM, first compound 3.16 µM): 35.3%
viability, T/C (second compound 0.316 µM, first compound 10 µM): 21.5%
viability, T/C [11]: 21.4%
viability, T/C [12]: 22.6%
viability, T/C (second compound 1 µM, first compound 0.316 µM): 21.9%
viability, T/C (second compound 1 µM, first compound 1 µM): 19.5%
viability, T/C (second compound 1 µM, first compound 3.16 µM): 25.7%
viability, T/C (second compound 1 µM, first compound 10 µM): 15.6%
